US7820640B2, “Methods for treating hearing loss” (Sound Pharmaceuticals Incorporated, priority 2002, dated 2010)
“And” between values parts separate entries of the source, which are not always exact repeats. Identical values can stand only once.

What was measured:
Type in all cases: in vivo, rat
[1] = system: Fisher-344 rats exposed to 110-115 dB noise at 4-16 kHz for 4 hours; test: ABR threshold shift after a single noise exposure (Example 1); settings: for difference in ABR threshold shifts between control and treated rats: 4-16 kHz click stimulus, ebselen 16 mg/kg
Description: (§1) Noise exposure paradigm: 8-week old female Fisher-344 rats were exposed to 110-115 dB noise at 4-16 kHz for 4 hours.
Physiologic analyses: The auditory evoked brainstem response (ABR) was used to assess hearing in each ear in each animal before and after exposure to noise using equipment from Intelligent Hearings System. ABR generated with a click stimulus (broad spectrum stimulus, 4-16 kHz) was measured in 5 dB intervals. Animals were re-evaluated evaluated at 1 day, 1 week, 2 weeks, and 3 weeks post noise exposure. ABR changes measured 1 day post noise exposure are considered to represent a temporary threshold shift (TTS); ABR changes measured 3 weeks post noise exposure are considered to represent a permanent threshold shift (PTS).
(§2) Dosing of Otoprotectants: Ebselen was dissolved at 4 mg/mL in 10% DMSO and administered to rats at 16 mg/kg. N-acetyl-cysteine was dissolved at 100 mg/mL in saline and was administered to rats at 325 mg/kg. About 0.5 ml of ebselen solution or N-acetyl-cysteine solution was injected intra-peritoneally or delivered by oral gavage twice daily the day prior to, the day of, and the day following exposure to noise. Control animals were dosed on an identical schedule with vehicle (10% DMSO) only.
Statistical analysis: All experiments were performed with four rats per study group, and measuring each ear independently before and after noise exposure. Data was collected in blinded studies. Statistical analyses were performed by analysis of variance (ANOVA) between study groups.

[2] = system: outer hair cells in cochlea of noise-exposed Fisher-344 rats; test: Cochlear hair cell counts after noise exposure (Example 1); settings: for physiologic protection from noise-induced hearing loss and hair cell loss: Example 1 conclusion, ebselen 16 mg/kg, N-acetyl-cysteine 325 mg/kg
Description: as §1
Morphologic analyses: Hair cell counts in cochlea from test animals following noise exposure and physiologic evaluation using ABR were determined by carefully dissecting cochlea to obtain inner ear sensory epithelia. The tissues were stained with fluorescein-labeled phalloidin (specific for actin filaments, which are abundant in hair cells) and 4,6-diamidino-2-phenylindole (DAPI; specific for the DNA in the nucleus in cells). Samples were then mounted on microscope slides and viewed with epifluorescence to determine the extent of hair cell loss and retention. The correlation between physiologic data (ABR) and morphological data (hair cell counts) allows for confirmation of the protective effects of otoprotectants of the invention.
as §2

[3] = system: Fisher-344 rats exposed to 110-115 dB noise at 4-16 kHz for 4 hours; test: ABR permanent threshold shift, ebselen and allopurinol alone or combined (Example 2); settings: for difference in ABR threshold shifts between control and treated rats: 16 mg/kg individually, combination 8 mg/kg each, highly significant = p<0.01; for protection from both temporary and permanent thresholds shifts: ABR, rats exposed to noise, alone or in combination; for reductions in PTS compared with controls: three weeks after noise exposure, intra-peritoneal injection at 16 mg/kg individually
Description: Noise exposure paradigm: 8-10 week old female Fisher-344 rats were exposed to 110-115 dB noise at 4-16 kHz for 4 hours.
Physiologic analyses: ABR generated with a click stimulus (broad spectrum stimulus, 4-16 kHz), and with tone stimuli at frequencies of 4 kHz, 8 kHz, 12 kHz, and 16 kHz, was measured in 5 dB intervals, as described in EXAMPLE 1. Animals were tested before and at 3 weeks post noise exposure to assess PTS.
Dosing of compounds: Ebselen was dissolved at 4 mg/ml in 10% DMSO and allopurinol was dissolved at 4 mg/ml in water. Ebselen and allopurinol were administered to rats at an individual dose of 16 mg/kg or at a combined dose of 8 mg/kg each. About 0.5 ml of ebselen solution, allopurinol solution, or ebselen/allopurinol solution was injected intra-peritoneally or delivered by oral gavage twice daily the day prior to, the day of, and the day following exposure to noise. Control animals were dosed on an identical schedule with vehicle only.
(§3) Statistical analysis: All experiments were performed with four rats per study group, and measuring each ear independently before and after noise exposure. Data was collected in blinded studies. Statistical analyses were performed by ANOVA between study groups.

[4] = system: outer hair cells in cochlea of repeatedly noise-exposed Fisher-344 rats; test: Cochlear hair cell counts after repeated noise exposure (Example 3); settings: 16 mg/kg
Description: (§4) Noise exposure paradigm: 8-week old female Fisher-344 rats were exposed to 110 dB noise at 4-16 kHz for 4 hours two times three weeks apart.
Morphologic analyses: Hair cell counts in cochlea from test animals following noise exposure and physiologic evaluation using ABR were determined as described in EXAMPLE 1.
(§5) Dosing of Ebselen: Ebselen was dissolved at 4 mg/mL in 10% DMSO and administered to rats at a dose of 16 mg/kg. About 0.5 ml of ebselen solution was injected intra-peritoneally or delivered by oral gavage twice daily the day prior to, the day of, and the day following each exposure to noise. Control animals were dosed on an identical schedule with vehicle only.

[5] = system: Fisher-344 rats exposed to 110 dB noise at 4-16 kHz for 4 hours two times three weeks apart; test: ABR threshold shift after repeated noise exposure (Example 3); settings: 16 mg/kg; for difference in ABR threshold shifts between control and treated rats: 3 weeks after two exposures to 110 dB noise
Description: as §4
Physiologic analyses: ABR generated with tone stimuli at frequencies of 4 kHz, 8 kHz, 12 kHz, and 16 kHz, was measured in 5 dB intervals, as described in EXAMPLE 1. […]
as §5, §3

[6] = 1 week post noise, N-acetyl-cysteine 325 mg/kg, highly significant = p<0.01, significant = p<0.05
[7] = 2 weeks post noise, N-acetyl-cysteine 325 mg/kg, highly significant = p<0.01, significant = p<0.05
[8] = 3 weeks post noise, N-acetyl-cysteine 325 mg/kg, significant = p<0.05
[9] = 1 day post noise (115 dB, 4-16 kHz, 4 h), N-acetyl-cysteine 325 mg/kg twice daily, highly significant = p<0.01, significant = p<0.05
[10] = 4 kHz stimulus, 3 weeks after noise
[11] = click stimulus, 3 weeks after 115 dB, 4-16 kHz noise for 4 h

CC(=O)N[C@@H](CS)C(=O)O [N-acetyl-cysteine, N-acetyl-L-Cysteine]
difference in ABR threshold shifts between control and treated rats [1, 6]: significant
difference in ABR threshold shifts between control and treated rats [1, 7]: significant
difference in ABR threshold shifts between control and treated rats [1, 8]: significant
difference in ABR threshold shifts between control and treated rats [1, 9]: significant
reduction in TTS ([1]; click stimulus, all time points after noise exposure, 325 mg/kg): significant reduction
physiologic protection from noise-induced hearing loss and hair cell loss [2]: physiologic protection

Oc1ncnc2[nH]ncc12 [allopurinol, 4-hydroxypyrazolo[3,4-d]pyrimidine]
difference in ABR threshold shifts between control and treated rats [3, 10]: highly significant
difference in ABR threshold shifts between control and treated rats ([3]; 16 kHz stimulus, 3 weeks after noise): highly significant
protection from both temporary and permanent thresholds shifts [3]: significant protection
difference in ABR threshold shifts between control and treated rats [3, 11]: highly significant
protection from noise-induced hearing loss and hair cell loss ([3]; statement in Example 1 referring to EXAMPLE 2): provide protection
reductions in PTS compared with controls [3]: significant reductions

O=c1c2ccccc2[se]n1-c1ccccc1 [ebselen, 2-phenyl-1,2-benzoisoselenazol-3(2H)-one]
difference in ABR threshold shifts between control and treated rats [1, 6]: highly significant
difference in ABR threshold shifts between control and treated rats [1, 7]: highly significant
difference in ABR threshold shifts between control and treated rats [1, 8]: significant
difference in ABR threshold shifts between control and treated rats [1, 9]: highly significant
reduction in TTS and PTS compared to control animals (fold) ([1]; click stimulus, 16 mg/kg): at least two-fold
reduction in TTS (temporary threshold shift) compared with controls ([1]; click stimulus, one day after noise exposure, 16 mg/kg): highly significant reduction
reduction in PTS (permanent threshold shift) compared with controls ([1]; click stimulus, three weeks after noise exposure, 16 mg/kg): significant reduction
PTS of a treated animal ([1]; single ebselen-treated animal, control animal 15 dB PTS): 0 dB
difference in ABR threshold shifts between control and treated rats [3, 10]: highly significant
protection from both temporary and permanent thresholds shifts [3]: significant protection
difference in ABR threshold shifts between control and treated rats [3, 11]: highly significant
reductions in PTS compared with controls [3]: significant reductions
physiologic protection from noise-induced hearing loss and hair cell loss [2]: physiologic protection
preservation of outer hair cells ([2]; after noise exposure, control animal had almost complete loss of outer hair cells): preservation of most outer hair cells
number of outer hair cells lost ([4]; individual rats B and D, two exposures to 110 dB noise, control rats A and C lost 401 and 246): 90 and 56
hair cell loss in cochlea compared to the control group ([4]; repeated noise exposure): less hair cell loss
difference in ABR threshold shifts between control and treated rats ([5]; 8 kHz stimulus, p<0.01): highly significant
difference in ABR threshold shifts between control and treated rats ([5]; 16 kHz stimulus, p<0.05): significant
reduction in TTS compared with controls ([5]; 1 day after repeated noise exposures): significant reduction
PTS compared to controls ([5]; three weeks after repeated noise exposures): significantly reduced
